Columns and labels:
[1] = tested on: COR-L23/P and its resistant cell line COR-L23/R; type: cell-based, human; settings: for cellular accumulation (concentration) in COR-L23/R compared with COR-L23/P: drugs at 20 μM, FIG. 11; for fluorescence due to uptake in resistant and non-resistant cells: drug concentration 10 μM, FIG. 12
Procedure: Cells were exposed in suspension at 2×10^5/ml to drugs at 20 μM. Aliquots were taken at various times and rinsed in ice cold PBS before being passed through the flow cytometre.
Cells were exposed to Daunorubicine, Daunorubicine elaidic amide and Daunorubicine oleic carbamate, as described above. Drug concentration was reduced to 10 μM.

[2] = tested on: NK65 strain drug sensitive P. berghei; experiment: 4-day test in P. berghei infected mice; type: in vivo; settings: for ED50: Plasmodium berghei, ip, 96 h, 50% reduction in parasites in blood, read-out: ED50 value (SE); for ED50 / ED90 value / ED99 value: i.p. for 4 days, elaidate values × 433/600; for ED90 value: 90% reduction in parasites in blood; for ED99 value: 99% reduction in parasites in blood
Procedure: A 4-day test in NK65 strain drug sensitive P. berghei was carried out in Swiss albino female mice with doses of 0.063, 0.25, 1.0 and 4 mg/kg hydroxychloroquine-elaidate and 0.094, […], 1.5 and 6 mg/kg hydroxychloroquine given intraperitoneally for 4 days to groups of 3 mice per group. The parasite inoculum of 10^7 infected cells was given intravenously on day 0 and follwoed by the drug dose for that day. The animals were dosed for the 3 following days and on the 5th day tail blood films were prepared for parasitaemia estimation. […] These findings could be of great importance in the treatment of malaria in man.
The effective doses giving 50%, 90% and 99% reduction in P. berghei malaria parasites in the blood of mice with either hydroxychloroquine sulphate or hydroxychloroquine-elaidate is shown in this table.

[3] = tested on: H69/LX4, human small lung cell line, overexpressing PgP
Description: An MTT assay was used to determine the toxicity of compounds. The cells were exposed to the compounds for 6 days prior to assaying. The cell line used was H69/LX4, human small lung cell line, overexpressing PgP.

[4] = drug toxicity LD50 in tumour-bearing mice, single intraperitoneal dose; type: in vivo, BALB/C female mice; settings: for LD50 at 10 days: female, BALB/C, mouse, in vivo, ip, read-out: Mother compound LD50
Procedure: (§1) Murine solid ADJ/PC6 plasmacytoma and its subline selected for resistance to cisplatin and other alkylating agents was implanted subcutaneously as 1 mm^3 tumour fragments into BALB/C female mice weighing 20-25 grams. Melphalan or melphalan-elaidic amide, or chlorambucil or chlorambucil-oleylester, were administered by intraperitoneal, single dose 20 days post subcutaneous tumour implantation. Tumours were dissected on day 30, and weights of control and treated groups were compared. Activity was based on the measurement of drug toxicity, LD50 in mg/kg compared to anti-tumour effect measured as ED90, the dose in mg/kg required to reduce tumour mass by 90% compared to controls.

[5] = tested on: cisplatin-resistant subline of ADJ/PC6 plasmacytoma; experiment: antitumour effect in vivo, cisplatin-resistant subline of ADJ/PC6 plasmacytoma; parameters: species or system murine
Procedure: as §1

[6] = tested on: granuloma induced cartilage degradation; settings: daily oral; for reduction of granuloma tissue dry weight versus liposome-treated control / reduction of fluid mass of the granulomas versus liposome-treated control / glycosaminoglycan content of implanted cartilage, less than liposome-treated control group / hydroxyproline content of implanted cartilage, less than liposome-treated control group: naproxen 30 mg/kg, derivatives 60 mg/kg; for reduction of granuloma tissue dry weight versus liposome-treated control / reduction of fluid mass of the granulomas versus liposome-treated control: liposomes; for reduction of granuloma tissue dry weight versus liposome-treated control: control 14.36 mg; for reduction of fluid mass of the granulomas versus liposome-treated control: control 62.69 mg; for glycosaminoglycan content of implanted cartilage, less than liposome-treated control group / hydroxyproline content of implanted cartilage, less than liposome-treated control group: implants 2 weeks
Description: The in vivo model of granuloma induced cartilage degradation which was employed involves the implantation of sterile cotton-wrapped rat femoral head cartilage subcutaneously on the backs of mice. The cotton provokes a granulomatous response with a demonstrable T cell involvement which leads to loss of matrix compounds from the implanted cartilage. […] It involves chronic erosive disease with quantitative biochemical end points for determining the loss of cartilage matrix. Antiinflammatory activity can be judged from the wet and dry mass of the cotton granuloma, chondroprotective activity can be determined from glycosaminoglycan and hydroxyproline content (indicative of proteoglycan and collagen respectively) of the implanted cartilage.
Groups of female (n=10) TO mice (21±4 g) received a subcutaneous implant of cotton-wrapped rat femoral head cartilage. At 2 weeks the implants were removed. The cotton provoked a granulomatous response with concomitant release of proteoglycan from the implanted cartilage. The effects of daily oral administration of equimolar amounts of naproxen (30 mg/kg) and naproxen derivatives (60 mg/kg) on granuloma development and cartilage proteoglycan content were assessed. The compounds were formulated as liposomes with empty liposomes acting as vehicle control.
A 15 mg/ml liposomal formulation is prepared by the 1:1 (w/w) mixing of the specific lipid derivatives (in DMSO) and lecithin (in ethanol) in a glycerol/sterile water buffer with subsequent dialysis to remove the solvents. A 7.5 mg/ml liposomal formulation of the underivatised NSAID compounds is prepared by the addition of the specific compound to empty liposomes in glycerol/sterile water.
Results were analysed with INSTAT using Mann-Whitney and with p values corrected for ties. Values of p<0.05 were taken as significant.

[7] = tested on: endotoxin induced airway changes; experiment: endotoxin (LPS) induced airway changes in rats, airway hyperresponsiveness model; type: in vivo, F344 rats
Procedure: In a model of acute inflammatory airway changes in rats, the animals are exposed to aerosolized endotoxin (LPS). […] 10 male F344 rats were exposed to 100 μg/ml LPS for 30 minutes in a chamber. 12 and 4 hours prior to aerosol exposure the animals were treated with either prednisolone or the prednisolone derivative by instillation, 3 mg/kg. 90 minutes after the end of the aerosol exposure, the animals were prepared for assessment of airway responsiveness to 5-hydroxytryptamine and evaluation of airway inflammation. 5HT was added intravenously every 5 minutes until minimum 50% increase in lung resistance is observed, and the amount of 5 HT necessary to increase the lung resistance with 50%, PC50RL was calculated.

[8] = tested on: rat peritoneal monocytes/macrophages; experiment: effect on rat peritoneal monocytes/macrophages after intraperitoneal injection (cell counts, chemoluminescence on stimulation); type: in vivo; settings: for activity (chemoluminescence) of zymosan stimulated peritoneal cells: 6, 12, 25, 48 and 72 hours post treatment, FIG. 5
ADJ/PC6 plasmacytoma = experiment: antitumour effect in vivo, murine subcutaneous ADJ/PC6 plasmacytoma (sensitive); settings: i.p. single dose day 20, tumours weighed day 30
Procedure: as §1

[9] = i.p. single dose day 20, tumours weighed day 30

With `COc1cccc2c1C(=O)c1c(O)c3c(c(O)c1C2=O)C[C@@](O)(C(=O)CO)C[C@@H]3O[C@H]1C[C@H](N)[C@H](O)[C@H](C)O1` [Doxorubicine, reference compound] as the compound, how does the “cellular accumulation (concentration) in COR-L23/R compared with COR-L23/P” value (“cellular accumulation … compared with COR-L23/P” for short) [1] read?
The value was “much lower in the resistant cell line”.

With `CCN(CCO)CCCC(C)Nc1ccnc2cc(Cl)ccc12` (stereo not shown) [Hydroxychloroquine sulphate, 7-chloro-4-[4-[ethyl(2-hydroxyethyl)amino]1-methylbutylamino]quinoline, reference compound] as the compound, how does the ED50 [2] read?
Its ED50 is 1.74 mg/kg.

And the ED90 value [2]?
Its ED90 value is 2.75 mg/kg.

What about the ED99 value [2] of the same compound?
Its ED99 value is 4.52 mg/kg.

With `CCCCCCCCC=CCCCCCCCCOC(=O)NC1CC(OC2CC(O)(C(C)=O)Cc3c(O)c4c(c(O)c32)C(=O)c2c(OC)cccc2C4=O)OC(C)C1O` (stereo not drawn) [Daunorubicine oleic carbamate, N-(cis-9-octadecen-1-oxycarbonyl)daunorubicin] as the compound, how does the “fluorescence due to uptake in resistant and non-resistant cells” value [1] read?
Its value is “more or less equal in the two cell types”.

Which “fluorescence due to uptake in resistant and non-resistant cells” value [1] does the source give for “Elaidic acid daunorubicin amide [Daunorubicine elaidic amide]” here?
Its value is “more or less equal in the two cell types”.

With `CCCCCCCCC=CCCCCCCCC(=O)NC1CC(OC2CC(O)(C(=O)CO)Cc3c(O)c4c(c(O)c32)C(=O)c2c(OC)cccc2C4=O)OC(C)C1O` (stereo not shown) [Doxorubicine-elaidic-amide, Elaidic acid doxorubicin amide] as the compound, how does the IC50 [3] read?
The IC50 was > 50 µM.

What about the “cellular accumulation … compared with COR-L23/P” value [1] of the same compound?
The value was “approximately the same”.

Which LD50 at 10 days [4] does the source give for `N[C@@H](Cc1ccc(N(CCCl)CCCl)cc1)C(=O)O` [Melphalan, L-3-[p-[bis(2-chlorethyl)amino]-phenyl]alanine, reference compound] here?
Its LD50 at 10 days is 23 mg/kg.

What about the “ED90, dose required to reduce tumour mass by 90% compared to controls” value [5, 9] of the same compound?
The value was “no activity”.

For `CCCCCCCC/C=C\CCCCCCCCOc1ccc2cc([C@H](C)C(=O)O)ccc2c1` (stereo in doubt) [naproxen oleyl ether, S(+)-2-(6-[cis-9′-octadecenoxy]-2-naphthyl)-propionic acid], which “reduction of granuloma tissue dry weight versus liposome-treated control” value ([6]; 2 weeks) is on record?
The value was 16%.

What about the “reduction of fluid mass of the granulomas versus liposome-treated control” value ([6]; 2 weeks) of the same compound?
The value was 9%.

Which “airway responsiveness to 5-hydroxytryptamine (PC50RL)” value ([7]; rat, in vivo) does the source give for `CCCCCCCC/C=C/CCCCCCCC(=O)OCC(=O)[C@@]1(O)CC[C@H]2[C@@H]3CCC4=CC(=O)C=C[C@]4(C)[C@H]3[C@@H](O)C[C@@]21C` [prednisolone-elaidate, 11β, 17α, 21-trihydroxypregna-1,4-diene-3,20-dione-21-elaidate] here?
Its value is “affected to a surprisingly high extent”.

What about the “number of inflammatory cells in the bronchoalveolar fluid” value ([7]; rat, in vivo) of the same compound?
The value was “Neither prednisolone nor the derivative did influence”.

What about the “chemiluminescence of stimulated peritoneal cells, comparison of 7 fatty acid esters of prednisolone” value ([8]; i.p. 10 mg/ml, 48 hours post treatment, FIG. 6) of the same compound?
Its value is “the best”.

And the “activity (chemoluminescence) of zymosan stimulated peritoneal cells” value ([8]; i.p. 4 ml at 10 mg/ml)?
The value was “reduced compared to control for up to 48 hours post treatment”.

Which “cellular accumulation … compared with COR-L23/P” value [1] does the source give for `CCCCCCCC/C=C\CCCCCCCCOC(=O)N[C@H]1C[C@H](O[C@H]2C[C@](O)(C(=O)CO)Cc3c(O)c4c(c(O)c32)C(=O)c2c(OC)cccc2C4=O)O[C@@H](C)[C@H]1O` (relative stereo) [Doxorubicine-oleyl-carbamate, N-(cis-9-octadecen-1-oxycarbonyl)doxorubicin] here?
The value was “approximately the same”.

With `CCCCCCCC/C=C\CCCCCCCCOC(=O)CCCc1ccc(N(CCCl)CCCl)cc1` [chlorambucil-oleylester, Chlorambucil-oleyl ester] as the compound, how does the “Derivative LD50” value [4] read?
The value was >1600 mg/kg.

With `CCCCCCCC/C=C\CCCCCCCCOC(=O)[C@@H](C)c1ccc2cc(OC)ccc2c1` (stereo in doubt) [naproxen oleyl ester, S(+)-2-(6-methoxy-2-naphthyl)propionic acid-cis-9′-octadecenyl-ester] as the compound, how does the “glycosaminoglycan content of implanted cartilage, less than liposome-treated control group” value [6] read?
Its value is 12%.

What about the “hydroxyproline content of implanted cartilage, less than liposome-treated control group” value [6] of the same compound?
Its value is 8%.

And the “reduction of granuloma tissue dry weight versus liposome-treated control” value ([6]; 2 weeks)?
Its value is 12%.

What about the “reduction of fluid mass of the granulomas versus liposome-treated control” value ([6]; 2 weeks) of the same compound?
The value was 14%.

What does the source list for `CCCCCCCC/C=C\CCCCCCCCNC(=O)[C@@H](C)c1ccc2cc(OC)ccc2c1` (stereo in doubt) [naproxen oleyl amide, S(+)-2-(6-methoxy-2-naphthyl)propionic acid-(cis-9′-octadecenyl)-amide]?
glycosaminoglycan content of implanted cartilage, less than liposome-treated control group [6]: 11%; hydroxyproline content of implanted cartilage, less than liposome-treated control group [6]: 3%; reduction of granuloma tissue dry weight versus liposome-treated control ([6]; 2 weeks): 38%; reduction of fluid mass of the granulomas versus liposome-treated control ([6]; 2 weeks): 22%

What does the source list for `CCCCCCCC/C=C/CCCCCCCC(=O)NC(Cc1ccc(N(CCCl)CCCl)cc1)C(=O)O` (stereo not shown) [melphalan-elaidic amide, Elaidic acid melphalan amide]?
Derivative LD50 [4]: 180 mg/kg; ED90, dose required to reduce tumour mass by 90% compared to controls (ADJ/PC6 plasmacytoma): ED90 was achieved; ED90, dose required to reduce tumour mass by 90% compared to controls [5, 9]: 60 mg/kg; ED90, dose required to reduce tumour mass by 90% compared to controls ([5]; i.p. single dose day 20, tumours weighed day 30, listed as melphalan-elaidic acid amide): ED90 was achieved

With `COc1ccc2cc([C@H](C)C(=O)O)ccc2c1` [naproxen, S(+)-2-(6-methoxy-2-naphthyl)propionic acid, reference compound] as the compound, how does the “implants lost through aggressive behaviour of the animals” value ([6]; 2 weeks, n=10) read?
Its value is 4 out of 10.

And the “glycosaminoglycan content of implanted cartilage, less than liposome-treated control group” value [6]?
Its value is 16%.

What about the “hydroxyproline content of implanted cartilage, less than liposome-treated control group” value [6] of the same compound?
The value was 12%.

What about the “reduction of granuloma tissue dry weight versus liposome-treated control” value ([6]; 2 weeks) of the same compound?
The value was “no effect”.

And the “reduction of fluid mass of the granulomas versus liposome-treated control” value ([6]; 2 weeks)?
The value was 12%.

Which ED50 [2] does the source give for `CCCCCCCC/C=C/CCCCCCCC(=O)OCCN(CC)CCCC(C)Nc1ccnc2cc(Cl)ccc12` (stereo not shown) [Hydroxychloroquine-elaidate, 7-chloro-4-[4-[ethyl(2-elaidoyloxyethyl)amino]1-methylbutylamino]-quinoline] here?
Its ED50 is 0.71 mg/kg.

What about the ED90 value [2] of the same compound?
Its ED90 value is 0.93 mg/kg.

What about the ED99 value [2] of the same compound?
The ED99 value was 1.24 mg/kg.

And the “times more effective than hydroxychloroquine itself” value ([2]; on a molar basis, 4 day test)?
The value was 2.5- 3 times.

Which results are given for `C[C@]12C=CC(=O)C=C1CC[C@@H]1[C@@H]2[C@@H](O)C[C@@]2(C)[C@H]1CC[C@]2(O)C(=O)CO` [prednisolone, 11β, 17α, 21-trihydroxypregna-1,4-diene-3,20-dione, reference compound]?
number of inflammatory cells in the bronchoalveolar fluid ([7]; instillation 3 mg/kg, 12 and 4 hours prior to LPS aerosol): Neither prednisolone nor the derivative did influence; activity (chemoluminescence) of zymosan stimulated peritoneal cells ([8]; i.p. 4 ml at 10 mg/ml): slight reduction of the chemoluminescence at 6 hours; number of macrophages in peritoneal lavage ([8]; i.p. 4 ml at 10 mg/ml, 6-72 hours, FIG. 8, FIG. 9): much less pronounced, and only seen at 6 and 12 hours

With `O=C(O)CCCc1ccc(N(CCCl)CCCl)cc1` [Chlorambucil, 4-[p-[bis(2-chlorethyl)amino]-phenyl]butyric acid, reference compound] as the compound, how does the LD50 at 10 days [4] read?
Its LD50 at 10 days is 57 mg/kg.

— patent publication US20030153544A1, “Fatty acid derivatives” (priority 1997, published 2003)
